Experimental data published in patent US11707511B2, “Vaccine compositions and methods of using the same” (The Board of Supervisors of Louisiana State University and …, priority 2017, dated 2023).
“Also recorded” adds a separate entry of the source.

Experiments:
[1] = tested on: C. albicans; test: Active immunization with peptide-pulsed dendritic cells, disseminated candidiasis caused by C. albicans in mice; type: in vivo, Candida albicans; settings: for protection against disseminated candidiasis caused by C. albicans: FIG. 2, antigen-pulsed DC vaccine without CFA; for CFUs in kidneys as compared to controls: FIG. 2 B and D
Protocol: (§1) Active Immunizations with peptide pulsed dendritic cells. […] It allows us to perform rapid throughput evaluation of candidate short peptides. When protective double universal peptide conjugate(s) become identified by this study, immunization approaches suitable for human use will be applied in further studies. All active vaccinations were conducted as previously described (6,7,9). DCs were pulsed in vitro with universal peptide as described before with minor modification by totally removing CFA for last booster (6). Briefly, DCs in culture were pulsed with the peptide antigen (1 μM) on day 6. On day 7, PGE2 (10^-7M) was added along with LPS (2 μg/ml, Sigma) for 24 h to induce DC maturation. On day 9, antigen-pulsed DCs were washed extensively and […] in 200 μl DPBS were given by intraperitoneal (i.p.) route as the priming dose to mice. The mice were boosted i.p. at day 14 and day 28 with fresh antigen-pulsed DCs without adjuvant.
Table 2 lists universal peptide vaccines that induced protection against disseminated candidiasis caused by C. albicans in mice. The universal peptide vaccines listed in Table 1 are expressed at high homology by all analyzed medically important Candida species in addition to C. albicans (see details at Table 2). By dendritic cell (DC) based immunization approach as described herein, each of the universal peptide vaccines was able to protect mice against disseminated candidiasis caused by C. albicans, with the survival rate 80-100% up to 80-120 days post challenge.
(§2) To perform rapid throughput evaluation of peptide vaccine candidates, immunizations were done by use of the similar antigen-pulsed DC based vaccine strategy with modification by totally removing CFA from vaccine formula. Fba peptide was used as positive control.

[2] = tested on: C. tropicalis (ATCC 20336); test: Peptide-vaccinated mice challenged with lethal dose of C. tropicalis; type: in vivo; settings: for survival: FIG. 3A, i.v. challenge 1×10^6/mouse, up to 80 days; for live fungal cells (CFU) in kidneys as compared to controls: FIG. 3B, p<0.001
Protocol: as §1
Peptide-vaccinated mice were challenged with lethal dose of live C. tropicalis cells (ATCC 20336; i.v. challenge dose: 1×10^6/mouse).

[3] = tested on: C. glabrata CBS138 (ATCC 2001); test: Peptide-vaccinated, cyclophosphamide-immunosuppressed mice challenged with C. glabrata; type: in vivo; settings: FIG. 4; 1×10^7 cells/mouse
Protocol: as §1
Peptide vaccinated mice were also challenged with C. glabrata, which has emerged as the second most common cause of invasive candidiasis in the US. Since C. glabrata is not lethal for wild-type mice, immunosuppression in vaccinated mice were induced by cyclophosphamide (50 mg/kg) treatment for two weeks, and then mice were challenged with live C. glabrata cells [CBS138 (ATCC 2001), 1×10^7 cells/mouse]. […] CFU experiments will be performed and completed. […]

[4] = Induction of specific anti-peptide antibody responses in immunized mice; type: in vivo; settings: BALB/c mice; peptide-pulsed DC; data not shown
Description: as §2
The double chimeric peptide conjugate vaccines have been tested for their abilities to induce specific anti-peptide antibodies and protective immunity against the disease caused by C. albicans. […] The enhancement in vaccine efficacy was evidenced by both increased survival and reduced or non-detectable fungal burden (colony forming units, CFUs) in kidneys of animals.

[5] = tested on: C. albicans 3153A; test: Passive transfer of mAbs or mAb cocktails i.p. before lethal i.v. challenge, mouse model of human disseminated candidiasis; type: in vivo, Candida albicans; settings: Table 14
Protocol: Passive transfer of MAbs by intraperitoneal (i.p.) route. The preventive effect of peptide-specific mAbs listed in Table 3 and Table 4 in naïve mice was examined by passive transfer experiments. […] For testing, mice received 0.5 ml of each mAb or 1 ml of two mAbs in combination (0.5 ml of each) intraperitoneally. […] The negative control materials tested in mice were single mAb or DPBS. Control mice received 0.5 ml of the DPBS diluents or single mAb treatment. For each condition, 6- to 8-week-old female BALB/c mice (NCI) were given 0.5 ml of test mAb, or 1 ml two mAb cocktails or control materials intraperitoneally, followed 4 h later by 0.1 ml intravenously of defined lethal dose of yeast cells per milliliter of DPBS. Mice were divided into groups with five mice each and three independent experiments were carried out. In some experiments, mice were given the same dose of mAbs or control materials on every other day post-challenge for two weeks, as compared to the protective efficacy of mAb in combinations. All mice were sacrificed on day 50. For animal groups that were challenged non-albicans candida species, determined optimal challenge doses were applied for each candida strain.
The hybridoma clones that produce the universal peptide specific mAbs listed above were generated from mice vaccinated with peptide-pulsed dendritic cell (DC) preparation as described previously (6). The isotype of mAb was determined with a Mouse Monoclonal Antibody Isotyping Kit (Pierce, USA). […] In detail, BALB/c mice were given an i.p dose of each mAb four hours before hematogenous challenged with a lethal dose of C. albicans3153A cells. […] Importantly, passive protection was prevented by removal of the mAbs by absorption with Candida cells before transfer, which provided strong additional evidence for the protection being due to the mAb.
The three cell wall proteins were selected because of expression during human candidiasis and cell wall association, and included fructose-bisphosphate aldolase (Fba); methyltetrahydropteroyltriglutamate-homocysteine methyltransferase (Met6); hyphal wall protein-1 (Hwp1). The hybridoma clones listed at Table 5, which produce the peptide specific mAbs, were generated from mice vaccinated with peptide-pulsed dendritic cell (DC) preparation as described previously (6). The isotype of mAb was determined with a Mouse Monoclonal Antibody Isotyping Kit (Pierce, USA). […] Importantly, passive protection was prevented by removal of the mAbs by absorption with Candida cells before transfer, which provided strong additional evidence for the protection being due to the mAb).
The preventive effect of each universal peptide-specific mAb was examined by passive transfer experiments. […] For testing, 5 mice of each tested group received 0.5 ml of each mAb intraperitoneally. The negative control materials tested in mice were mAbs absorbed with C. albicans yeast cells (3153A) and DPBS. Control mice received 0.5 ml of the DPBS diluents or adsorbed mAb solution. For each condition, 6- to 8-week-old female BALB/c mice (NCI) were given 0.5 ml of test mAb, or control materials intraperitoneally, followed 4 h later by 0.1 ml intravenously of a suspension containing lethal dose of Candida cells per milliliter of DPBS. Mice were divided into groups with five mice each and three independent experiments were carried out. We have developed neutropenic murine models of disseminated infection by C. glabrata, C. tropicalis and C. parapsilosis. To induce neutropenia, naïve mice received a 200 mg/kg dose of cyclophosphamide (CY) by i.p. on day −3. Prolonged neutropenia were maintained for 30-50 days by giving each animal a 150 mg/kg dose of CY by i.p. every 10 days after infection.

[6] = tested on: C. auris; test: Passive transfer of mAbs in cyclophosphamide-immunosuppressed B6.129X1Elane mice, disseminated infection by C. auris; type: in vivo, Candida auris; settings: 2×108 C. auris i.v.
Protocol: An immunocompromised murine model of disseminated infection by C. auris was developed. To induce immunosuppression, Jackson B6.129X1Elane mice received a 200 mg/kg dose of cyclophosphamide (CY) by i.p. on day −3. Prolonged immunosuppression was maintained for 30 days by giving each animal a 200 mg/kg dose of CY by i.p. every 10 days after infection. On day 0, mice of different experimental groups were intravenously infected with 2×10^8 viable C. auris yeast cells.
The preventive effect of peptide-specific mAbs, for example 7H6A2 and 1D4H5, and combinations thereof, for example 7H6A2+1D4H5, was examined by passive transfer experiments. Each mAb was appropriately diluted in DPBS to give a 40,000-100,000 ELISA titer against each corresponding specific peptide coated on the plate. For testing, mice received 0.5 ml of each mAb or 1 ml of two mAbs in combination (0.5 ml of each) intraperitoneally. Control mice received 0.5 ml of the DPBS diluents.
Protective mAbs protect immunocompromised mice against disseminated infection by Candida auris: The possibility of using passive mAb immunotherapy in immunocompromised mice against disseminated candidiasis by C. auris. The protective effect of mAb 7H6A2, 1D4H5 or these two mAbs in combination against the disease in immunocompromised mice was examined by passive transfer experiments (FIG. 14). Mice received either mAb 7H6A2 or 1D4H5 or the two mAbs in combination had reduced CFUs in kidneys (FIG. 14A) and in brains (FIG. 14B) as compared with control mice.

[7] = tested on: C. auris AR-0386; test: Passive transfer of mAbs or two mAbs in combination in A/J mouse model of invasive C. auris infection; type: in vivo, Candida auris; settings: Table 19; A/J strain mice
Protocol: A. Complement protein C5-defecient A/J mice were treated with one of the five mAb or with DPBS as a vehicle control. The following day, mice were challenged with 1×10^8 C. auris cells/100 ul DPBS dose per mouse. […] B. Fungal burdens in the kidneys (top), heard (center), and brain (bottom).
Identified protective mAbs were obtained by use of standard hybridoma technique and purified by use of protein A/G. A/J mice were given an i.p. dose of either single mAb or two mAbs in combination 24 hours before hematogensous challenge with a lethal dose (2×108) of C. auris AR-0386 live cells. Mice received either 9G2F5 alone or 6H1G8 alone or 9F2G5 and 3H7E3 in combination had 40% survival rate respectively, with prolonged survival as compared to control animals that received DPBS buffer control.
Evaluation and validation of a panel of peptide-specific monoclonal antibodies (mAbs) as a passive immunization strategy protect against invasive C. auris infection in established A/J mouse model of human disease.
The monoclonal antibodies used in this experiment were: • 6H1G8 (IgG2b), α-Hwp1 (Hyphal wall protein) • 3E2G2 (IgG2b), α-Fba (Fructose bisphosphate aldolase) • 10E7E2 (IgG1), α-GPV-P3 (General peptide vaccine 3 from Phosphoglycerate kinase) • 9F2G5 (IgG2a), α-Pgk1 (Phosphoglycerate kinase) • 3H7E3 (IgG1), α-Met6 (Methyltetrahydropteroyltriglutamate)

Molecule | protection against disseminated candidiasis caused by C. albicans [1] | CFUs in kidneys as compared to controls [1] | survival [2] [%] | live fungal cells (CFU) in kidneys as compared to controls [2] | protection against disseminated candidiasis caused by C. glabrata [3] | specific antibody responses [4] | Protection of adsorbed mAb ([5]; mAb removed by absorption with Candida cells before transfer) | Protection ([5]; single mAb, C. albicans) | Protection (grade word) ([5]; single mAb, C. albicans) | CFUs in kidneys as compared with control mice ([6]; FIG. 14A) | CFUs in brains as compared with control mice ([6]; FIG. 14B) | Protection against C. auris [7] | Protection against C. auris (grade word) [7]
FbaU1: putative universal Fba peptide; Table 17 equates it with Fba3 (SEQ ID NO: 36) but tested as a separate peptide (FAIPAINVTSSSTVVAALE) | good protective responses; also recorded: high degree protection | reduced or non-detectable CFUs | 100 | significantly reduced live fungal cells | high degree protection | able to induce specific antibody responses |  |  |  |  |  |  | 
YDQVLDLSLLFNAIP [Met6-2] | good protective responses; also recorded: high degree protection | reduced or non-detectable CFUs | 80 | significantly reduced live fungal cells | high degree protection | able to induce specific antibody responses |  |  |  |  |  |  | 
7H6A2: IgG2b mAb of hybridoma 7H6A2, specific for Met6 peptide (antibody) heavy: QIQLVQSGPELKKPGETVKISCKASGYTFTDFSMHWVKQAPGKGLKWMGWINTETVEPTYADDFKGRFAFSLETSASTAYLQINNLKNEDTATYFCSRVSYDGYYGDFAMDYWSQGTSVTVSSAKTTAPSVYPLAPVCGDTTGSSVTLGCLVKGYFPEPVTLTWNSGSLSSGVHTFPAVLQSDLYTLSSSVTVTSSTWPSQSITCNVAHPASSTKVDKKIEPRGPTIKPCPPCKCPAPNLLGGPSVFIFPPKIKDVLMISLSPIVTCVVVDVSEDDPDVQISWFVNNVEVHTAQTQTHREDYNSTLRVVSALPIQHQDWMSGKEFKCKVNNKDLPAPIERTISKPKGSVRAPQVYVLPPPEEEMTKKQVTLTCMVTDFMPEDIYVEWTNNGKTELNYKNTEPVLDSDGSYFMYSKLRVEKKNWVERNSYSCSVVHEGLHNHHTTKSFSRTPGK light: DIQMTQTTSSLSASLGDRVTISCRASQDISNYLNWYQQKPDGTVKLLIYYTSRLHSGVPSRFSGSGSGTDYSLTISNLEQEDIATYFCQQGNTLPWTFGGGTKLEIKRADAAPTVSIFPPSSEQLTSGGASVVCFLNNFYPKDINVKWKIDGSERQNGVLNSWTDQDSKDSTYSMSSTLTLTKDEYERHNSYTCEATHKTSTSPIVKSFNRNEC |  |  |  |  |  |  | None | (80-90%) | High | reduced CFUs | reduced CFUs; also recorded: no CFU detected | 80-100% | High
